Laboratory results taken from patent US20220409620A1, “REDUCING IMMUNOGENICITY TO PEGLOTICASE” (Horizon Pharma Rheumatology LLC, priority 2016, published 2022).

Test system: adult patients with uncontrolled gout
Test: Serum uric acid (sUA) levels and sUA responder rate, open-label study of pegloticase with MTX (MIRROR OL)
Type: in vivo, human
Details: for Serum Uric Acid Change from Methotrexate Baseline, Mean (SD) / Serum Uric Acid Change from Methotrexate Baseline, Median / Serum Uric Acid, Observed, Mean (SD) / Serum Uric Acid, Observed, Median / sUA <6 mg/dL, n (%): mITT
Method: The primary objective is to estimate the response rate during Month 6 (Weeks 20, 22, and 24), as measured by the sustained normalization of serum uric acid (SUA) to <6 mg/dL for at least 80% of the time during Month 6 in subjects receiving KXX with MTX.
The primary efficacy outcome endpoint is the sustained normalization of SUA to <6 mg/dL for at least 80% of the time during month 6 (weeks 20, 22, and 24) in subjects receiving KXX with MTX. […] Participants who achieve this endpoint were classified as “responders.” Serum uric acid (SUA) responders may also be defined as participants achieving and maintaining SUA <6 mg/dL for at least 80% of the time during Month 6 (Weeks 20, 22, and 24).
Blood samples may be collected prior to each pegloticase infusion for measurement of SUA levels using the Beckman Coulter AU System Uric Acid procedure. Participants were declared “non-responders” if there were SUA measures >6 mg/dL at 2 consecutive study visits beginning with the week 2 visit. […] This assumption and subsequent discontinuation of pegloticase was consistent with the protocol of large phase III randomized controlled trials and the product label. A formal stopping rule was 2 occasions of SUA levels of greater than 6 mg/dL.
Clinical Chemistry—Blood samples were collected prior to each pegloticase infusion for measurement of SUA levels (primary efficacy parameter) using the Beckman Coulter AU System Uric Acid procedure. In this procedure uric acid is converted to hydrogen peroxide. Hydrogen peroxide reacts with reagent to produce a chromophore which is read bichromatically at 660/800 nm. The amount of dye formed is proportional to the uric acid concentration in the sample.
Serum samples for measurement of SUA levels were collected at the Screening Visit, the Week −4 Visit (prior to the first dose of MTX), and the Week −2 Visit during the MTX Run-in Period; within 48 hours prior to each pegloticase infusion and after the end of each pegloticase infusion prior to discharge from the site during the Pegloticase+IMM Period; at the non-infusion Week 52/End of Study/Early Termination Visits and at the Post Treatment 3 and 6 Month Follow-up Visits. Additional serum samples for SUA levels were collected at optional non-infusion (Frequent Sampling) Visits at Weeks 1 and 7. […] Subjects with SUA level >6 mg/dL at 2 consecutive visits beginning at Week 2 visit discontinued treatment, completed the End of Pegloticase Infusion Visit procedures within 2 weeks and continued the subject visits according to the protocol (without treatment).
Efficacy analyses were performed using the modified intention-to-treat (mITT) population, defined as all enrolled subjects who received ≥1 dose of pegloticase. The proportion of Month 6 responders was summarized, along with a 95% confidence interval for the proportion. The proportion of Month 3 and overall (Months 3 and 6 combined) responders was analyzed similarly.
A subject was declared a non-responder if the subject had SUA level >6 mg/dL at 2 consecutive study visits beginning with the Week 2 Visit. In addition, a subject who withdraws from study treatment for any reason after the first dose of pegloticase in the KXX+MTX Period and prior to Month 6 (for the primary endpoint) or Month 3 (for the secondary endpoint) was considered a non-responder if SUA values were not collected at the planned time points.
Patients were administered oral MTX (15 mg/week) and folate (1 mg/day) 4 weeks prior to the first pegloticase infusion (Day 1) and throughout the pegloticase treatment period. Blood was drawn prior to each infusion to measure sUA level, monitor clinical parameters, and examine for ADA development. All patients followed typical IR prophylaxis protocols (fexofenadine one day before and the morning of each infusion and acetaminophen and IV corticosteroid the morning of each infusion).

[1] = Day 1 - Pre-Infusion (after MTX Run-in)

Q: How did the “mean sUA” value (Day 1, after 4-week MTX run-in, before first pegloticase infusion, 14 patients) turn out when `CN(Cc1cnc2nc(N)nc(N)c2n1)c1ccc(C(=O)N[C@@H](CCC(=O)O)C(=O)O)cc1` [MTX, methotrexate] was run?
A: 9.2 ± 2.5 mg/dL

Q: What about the “Serum Uric Acid Change from Methotrexate Baseline, Mean (SD)” value [1] of the same compound?
A: 0.25 (1.283) mg/dL

Q: What about the “Serum Uric Acid Change from Methotrexate Baseline, Median” value [1] of the same compound?
A: -0.25 mg/dL

Q: What about the “Serum Uric Acid, Observed, Mean (SD)” value [1] of the same compound?
A: 9.16 (2.486) mg/dL

Q: What about the “Serum Uric Acid, Observed, Median” value [1] of the same compound?
A: 9.00 mg/dL

Q: And the “sUA <6 mg/dL, n (%)” value [1]?
A: 1 (7.1%)

Q: What about the “Serum Uric Acid Change from Methotrexate Baseline, Mean (SD)” value (Week - 2 (MTX Run-in)) of the same compound?
A: 0.54 (0.839) mg/dL

Q: And the “Serum Uric Acid Change from Methotrexate Baseline, Median” value (Week - 2 (MTX Run-in))?
A: 0.50 mg/dL

Q: And the “Serum Uric Acid, Observed, Mean (SD)” value (Week - 2 (MTX Run-in))?
A: 9.45 (2.211) mg/dL

Q: And the “Serum Uric Acid, Observed, Median” value (Week - 2 (MTX Run-in))?
A: 9.30 mg/dL

Q: What about the “sUA <6 mg/dL, n (%)” value (Week - 2 (MTX Run-in)) of the same compound?
A: 1 (7.1%)
